Measured values reported in ChEMBL document CHEMBL1137297, “Synthesis and pharmacological evaluation of novel octahydro-1H-pyrido[1,2-a]pyrazine as mu-opioid receptor antagonists” (J Med Chem, 2006).

What was measured:
Type in all cases: cell-based
Mu-type opioid receptor = Mu-type opioid receptor (Homo sapiens, UniProt P35372); experiment: Inhibition of [3H]diprenorphine binding to human cloned mu opioid receptor expressed in CHO cells at 10 uM
[1] = molecular target: Kappa-type opioid receptor (Homo sapiens, UniProt P41145); experiment: Inhibition of [3H]diprenorphine binding to human cloned kappa opioid receptor expressed in CHO cells at 10 uM
[2] = molecular target: Delta-type opioid receptor (Homo sapiens, UniProt P41143); experiment: Inhibition of [3H]diprenorphine binding to human cloned delta opioid receptor expressed in CHO cells at 10 uM
Chain of Delta-type opioid receptor (P41143 whole entry): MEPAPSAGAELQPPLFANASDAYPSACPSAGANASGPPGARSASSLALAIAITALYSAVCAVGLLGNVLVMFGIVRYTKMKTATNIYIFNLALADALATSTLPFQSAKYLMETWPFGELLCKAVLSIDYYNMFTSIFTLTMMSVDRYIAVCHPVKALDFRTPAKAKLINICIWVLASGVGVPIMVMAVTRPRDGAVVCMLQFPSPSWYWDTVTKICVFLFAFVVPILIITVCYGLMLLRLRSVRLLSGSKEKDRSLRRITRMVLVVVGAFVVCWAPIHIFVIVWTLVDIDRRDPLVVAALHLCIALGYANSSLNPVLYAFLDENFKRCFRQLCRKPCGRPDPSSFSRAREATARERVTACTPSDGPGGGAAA

Chain of Mu-type opioid receptor (P35372 whole entry): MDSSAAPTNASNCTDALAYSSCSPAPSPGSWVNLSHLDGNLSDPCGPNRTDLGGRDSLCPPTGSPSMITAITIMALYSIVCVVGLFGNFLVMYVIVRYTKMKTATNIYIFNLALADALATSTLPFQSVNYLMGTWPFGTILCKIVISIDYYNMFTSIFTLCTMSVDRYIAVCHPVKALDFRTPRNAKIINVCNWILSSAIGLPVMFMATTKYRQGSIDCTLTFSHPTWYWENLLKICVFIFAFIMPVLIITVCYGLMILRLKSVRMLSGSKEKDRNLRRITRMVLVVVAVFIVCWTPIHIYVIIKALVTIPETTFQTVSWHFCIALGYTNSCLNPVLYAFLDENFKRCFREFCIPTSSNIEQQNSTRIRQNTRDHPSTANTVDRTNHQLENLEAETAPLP
Chain of Kappa-type opioid receptor (P41145 whole entry): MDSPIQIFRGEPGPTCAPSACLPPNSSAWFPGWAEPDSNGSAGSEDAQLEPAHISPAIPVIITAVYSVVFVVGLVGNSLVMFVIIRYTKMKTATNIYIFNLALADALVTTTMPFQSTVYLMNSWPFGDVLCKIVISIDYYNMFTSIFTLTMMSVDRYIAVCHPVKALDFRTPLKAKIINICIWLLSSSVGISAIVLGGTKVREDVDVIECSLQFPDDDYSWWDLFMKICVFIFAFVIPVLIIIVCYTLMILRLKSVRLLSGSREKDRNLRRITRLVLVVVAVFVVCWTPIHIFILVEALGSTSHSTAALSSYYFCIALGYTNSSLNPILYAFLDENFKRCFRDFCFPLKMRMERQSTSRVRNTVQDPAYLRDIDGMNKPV

Compound	inhibition (Mu-type opioid receptor) [%]	inhibition [1] [%]	inhibition [2] [%]
C[C@H]1CN2CCNC[C@H]2C[C@@]1(C)c1cccc(O)c1	49	46	35
C[C@H]1CN2CCN(S(C)(=O)=O)C[C@H]2C[C@@]1(C)c1cccc(O)c1	45	14	5
